According to US6303751A, “Human metabotropic glutamate receptor and related DNA compounds” (Eli Lilly and Company, priority 1995, dated 2001):

What was measured:
control AV12 cells = assay: PI hydrolysis in control AV12 cells (PI assay); assay type: cell-based; settings: quisqualate 10 μM
Experimental: (§1) PI hydrolysis in clonal cell lines of AV12/pRS121 cells was measured in response to glutamate agonists as a functional assay for metabotropic glutamate receptor activity according to Schoepp, 11 TiPS 508 (1990).
(§2) Twenty-four-well tissue-culture vessels were seeded with approximately 250,000 cells per well in D-MEM (in the absence of glutamic acid) which contained […] and 10% dialyzed fetal calf serum. Four microcuries of ^3 H-myoinositol were then added to each well and the cultures were incubated for 48 hours at 37° C. The wells were then rinsed with serum-free medium which contained 10 mM LiCl and 10 mM myoinositol. Some wells were then exposed to medium with glutamate agonists for one hour at 37° C., and some wells were at the same time exposed to medium without glutamate agonists for one hour at 37° C.
(§3) The reactions were terminated by removing the media and adding 0.5 ml acetone-methanol (1:1). The cells were then incubated at 4° C. for 20 minutes. The acetone-methanol solutions were recovered from the wells and were placed into centrifuge tubes. […]
(§4) Labeled phosphoinositides were eluted from the cartridges with 4 ml of a solution which contained: 0.1 M ammonium formate; 0.1 M formic acid and 5 mM sodium tetraborate. […] Scintillation counting fluid (Ready Solv HP) was added to the vials and the radioactivity was determined in a Beckmann Scintillation Counter.

[1] = tested on: HSmGluR1 receptor (human metabotropic glutamate receptor) in AV12/pRS121 cells; assay: PI hydrolysis in AV12/pRS121 cells (PI assay); assay type: cell-based; settings: 10 μM, one hour at 37° C.
Experimental: as §1, §2, §3, §4

N[C@@H](Cn1oc(=O)[nH]c1=O)C(=O)O [quisqualate]
increase in PI hydrolysis over basal levels (control AV12 cells): No increase | increase in PI hydrolysis over the basal level [1]: 200 to 300%
